Key:
Type in all cases: cell-based
[1] = test system: mouse embryonic stem cell-derived cardiomyocytes, residual undifferentiated embryonic stem cells and other cells; assay: Mannitol treatment of culture system containing both embryonic stem cell-derived cardiomyocytes and residual embryonic stem cells; conditions: 0.45 M, 36 hours
Procedure: Mouse derived embryonic stem cells were treated by the method of Example 1 to form embryoid bodies, which were differentiated to a stage containing the programmed cardiomyocytes (precardiac mesoderms). Thus obtained embryoid bodies were treated with digestive enzymes (trypsin and collagenase) meticulously to ensure that no cell damage would be caused and the resulting partially dispersed embryoid bodies were subjected to another adherent culture. Upon a 5-day continued culture, populations of cardiomyocytes pulsating autonomously (the cell populations circled by the red lines), cell populations having the traits of embryonic stem cells-like cells (the cell populations circled by the yellow lines), and other cell populations were observed together (see FIG. 2(a)). In the next step, the culture medium for the mixed culture was replaced by a serum-free α-MEM culture medium containing mannitol in 0.45 M (approximately equivalent to 720 mOsm/kg) and ITS {insulin (10 mg/L), transferrin (5.5 mg/L), and sodium selenite ([…])} (GIBCO) and culture was performed for 36 hours. […] Subsequently, the culture medium was replaced by an α-MEM culture medium supplemented with 20% fetal calf serum and culture was continued, whereupon the cardiomyocytes restored autonomous pulsation in 1 or 2 days.

[2] = test system: mouse embryonic stem cells; assay: Cell death inducing effect on mouse embryonic stem cells (TMRM, FACS); conditions: 0.45 M
Text: The mitochondrial membrane potential is lost in dead cells, so if cells are stained with the mitochondrial membrane potential sensitive reagent TMRM (Molecular Probe) which emits fluorescence upon detecting the membrane potential which is an indicator of survival, the fluorescence signal derived from this reagent is high in live cells but low in dead cells. This feature was used in Example 3; embryonic stem cells cultured by the method of Example 1 were further cultured in an α-MEM culture medium containing 0.45 M mannitol (approximately equivalent to 720 mOsm/kg) and 1 μM TMRM for a period of 0 h (Pre), 3 h, 6 h or 20 h; the cultured embryonic stem cells were harvested, washed and subjected to FACS analysis for checking the state of their survival on the basis of the fluorescence intensity of the mitochondrial membrane potential sensitive reagent TMRM; the results are shown in FIG. 4. In FIG. 4 depicting the results of FACS analysis for 0 h (Pre), 3 h, 6 h, and 20 h, the cells lying above the border line on the dot plots diagrams are live cells and those below the border line are dead cells.

[3] = test system: human embryonic stem cells; assay: Cell death inducing effect on human embryonic stem cells (TMRM FACS, 5-day adherent culture); conditions: 0.45 M
Procedure: The human embryonic stem cells were obtained from Stem Cell Research Center, Institute for Frontier Medical Sciences, Kyoto University (ES cell center sponsored by the National Bio-Resource Project) (Suemori, H et al., Biochem. Biophys. Res. Commun., Vol. 345, 2006, pp. 926-932). The cells were cultured basically in accordance with the method described in this document. To be more specific, the human embryonic stem cells were cultured to maintain their undifferentiated state using mouse embryonic fibroblasts (MEF) that had been inactivated for growth by treatment with mitomycin C. The culture medium of F12/DMEM (1:1) (SIGMA; Product No. D6421), supplemented with 20% KO-SERUM (GIBCO), 1.6 mM L-glutamine, 0.1 mM non-essential amino acids (MEM), 0.1 mM β-mercaptoethanol (2-ME; Sigma), 100 IU/ml penicillin, 100 μg/ml streptomycin sulfate, and recombinant human basic fibroblast growth factor (bFGF; Reprotech) was used. Upon passaging, the cells were treated with 0.1% type III collagenase (Wortington) at 37° C. for 10 minutes to separate embryonic stem cell colonies. After passaging, the cells were dispersed with each other using TE (0.25% trypsin (GIBCO) and 1 mM EDTA) and in accordance with a published document (Watanabe, K. et al., Nat. Biotechnol., 2007, 25: 681-686, Epub 2007 May 27), 10 μM of a ROCK inhibitor (Y27632) was added to suppress cell death. At the same time, the mitochondria in the live cells were stained with 50 nM TMRM. Part of the stained cells were treated with an α-MEM culture medium containing 0.45 M mannitol (approximately equivalent to 720 mOsm/kg) for 2, 3 or 4 hours and three samples were prepared from these cells; the rest of the stained cells were treated with a mannitol-free α-MEM culture medium for 2 hours and a sample was prepared from these cells as a control. In the control, cells were aggregated with each other to make masses, so before FACS analysis, the treated groups and the control were given another treatment with trypsin and EDTA to disperse the cells. The cells treated with mannitol for 2, 3 or 4 hours and the control cells were analyzed by FACS for the level of mitochondrial membrane potential on the basis of the fluorescent intensity of TMRM to check the state of survival of the stem cells; the results are shown in FIG. 7. […] In addition, the TMRM-stained cells were photographed, both for the case of 2-h treatment with mannitol and for the control (FIG. 8)). […] Changes in the mitochondrial membrane potential were observed using the experimental technique of Example 5, provided that the human embryonic stem cells were treated not with mannitol, but with 0.45 M of various other saccharides (sugar alcohols: sorbitol and xylitol; sugars: sucrose and glucose; betaines: trimethylglycine) (approximately equivalent to 750-780 mOsm/kg) for 2 hours.

embryonic stem cells = assay: Study of mannitol concentration and duration of exposure versus cell death of embryonic stem cells; conditions: 1M (substantially saturated concentration)
Text: The present inventors prepared hypertonic solutions containing mannitol dissolved in it at high concentrations and applied those hypertonic solutions to a mixed cell system comprising embryonic stem cells as well as cardiomyocytes and non-cardiomyocytes; they found the fact that upon exposure to the hypertonic solutions, the embryonic stem cells and non-cardiomyocytes were more likely to undergo cell death.

OC[C@@H](O)[C@@H](O)[C@H](O)[C@H](O)CO [mannitol]
State of cells other than cardiomyocytes (cell death) ([1]; then culture in medium with 20% fetal calf serum): virtually all cells other than cardiomyocytes were found dead | Nkx 2.5 positive cardiomyocytes among the obtained cells ([1]; immunostaining): ≥ 98% | Cells that had died ([2]; 3-hr treatment): approximately 90% | Cells that had died ([2]; 6-hr treatment): 98% | Cells that had died ([2]; 20-hr treatment): all cells had been dead | Mitochondrial membrane potential (TMRM fluorescence, FACS) ([3]; 2 hours): almost all of the cells treated with mannitol for 2 hours had lost membrane potential | Self-aggregation of cells immediately after treatment ([3]; 2 hours, photographs of TMRM-stained cells): remained dispersed | Survival after adherent culture for 5 days ([3]; then 5 days adherent culture): none of the cells exposed to mannitol were found live | Cell death in embryonic stem cells (embryonic stem cells): induced cell death in embryonic stem cells within a short period of time

Source: patent US8735152B2, “Methods for inducing cell death in pluripotent stem cells and differentiated cells other than cardiac myocytes” (Daiichi Sankyo Company, Limited, priority 2009, dated 2014)
